Assay results taken from the supplement of paper PMC11451515.

Tests used:
Conditions in all cases: 48 h
NOMO1 [1] = experiment: AUC of viability dose-response curve (% viability x log10 dose units); higher = less sensitive
Outline: (§1)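 Viability of medium-adapted leukemia cells was measured by CellTiter-Glo One luminescence after 48 h at 37°C with library compounds in DMSO. Doses were 11 threefold steps from 47 μM to 0.79 nM, in 1536-well plates at 500 or 1000 cells/well. Signals were normalised per plate to DMSO and cell-free wells and fitted with a four-parameter log-logistic model on log10 dose. Area under the curve was integrated by trapezoidal rule, with curves exceeding full viability scaled and failed quality-control curves removed.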

P12-Ichikawa [2] = experiment: as above
Outline: as §1

SEM cells [3] = experiment: as above
Outline: as §1

SEM cells [4] = experiment: cell viability relative to DMSO control; higher = less cytotoxic
Outline: (§2)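 Library compounds in DMSO were pin-dosed into 1536-well plates (5 μl) holding NOMO1 or SEM (500 cells/well) or P12-Ichikawa (1000 cells/well) leukemia cells, across an 11-point threefold series of 47 μM to 0.79 nM. Each cell line had been adapted for at least four passages in each medium. CellTiter-Glo One luminescence was read after 48 h at 37°C. Viability is the per-plate percentage relative to DMSO wells, with cell-free wells as background.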

NOMO1 [5] = experiment: as above
Outline: as §2

P12-Ichikawa [6] = experiment: as above
Outline: as §2

O=C(O)/C=C/c1ccc(Cn2ccnc2)cc1
AUC of viability dose-response curve
Conditions	NOMO1 [1]	P12-Ichikawa [2]	SEM cells [3]
HPLM + 10% dialyzed FBS	469	438	466
RPMI 5 mM glucose + 10% FBS	438	436	471
RPMI 5 mM glucose + 10% dialyzed FBS	460	464	473

C[S+](=O)([O-])OCCCCO[S+](C)(=O)[O-]
SEM cells [4], HPLM + 10% dialyzed FBS
Conditions	cell viability [%]
0.000781 µM	102
0.00234 µM	119
0.00702 µM	134
0.0211 µM	124
0.0632 µM	145
0.19 µM	129
0.569 µM	142
1.71 µM	128
5.12 µM	109
15.4 µM	89.6
46.1 µM	43.1

AUC of viability dose-response curve
Conditions	NOMO1 [1]	P12-Ichikawa [2]	SEM cells [3]
HPLM + 10% dialyzed FBS	407	451	440
RPMI 5 mM glucose + 10% FBS	449	438	438
RPMI 5 mM glucose + 10% dialyzed FBS	462	450	436

COC1=CC=C(C=C1)C/2=C(OC3O[C@@H](C)[C@H](O)[C@@H](O)[C@H]3O)/C(=O)C4=C(O2)C(=C(OC5O[C@H](CO)[C@@H](O)[C@H](O)[C@H]5O)C=C4O)CC=C(C)C (stereo partly specified)
SEM cells [4], RPMI 5 mM glucose + 10% dialyzed FBS
Conditions	cell viability [%]
0.000781 µM	127
0.00234 µM	123
0.00702 µM	117
0.0211 µM	118
0.0632 µM	126
0.19 µM	129
0.569 µM	124
1.71 µM	114
5.12 µM	115
15.4 µM	80.7
46.1 µM	14.7

AUC of viability dose-response curve
Conditions	NOMO1 [1]	P12-Ichikawa [2]	SEM cells [3]
HPLM + 10% dialyzed FBS	445	456	439
RPMI 5 mM glucose + 10% FBS	457	459	420
RPMI 5 mM glucose + 10% dialyzed FBS	462	469	435

COc1ccc([S+](=O)([O-])Nc2cc(-c3c(O)ccc4ccccc34)c(O)c3ccccc23)cc1
cell viability [%], SEM cells [4]
Conditions	HPLM + 10% dialyzed FBS	RPMI 5 mM glucose + 10% FBS
0.000781 µM	96.8	114
0.00234 µM	111	115
0.00702 µM	134	124
0.0211 µM	115	131
0.0632 µM	101	119
0.19 µM	116	127
0.569 µM	101	115
1.71 µM	97	88.7
5.12 µM	86.4	78.6
15.4 µM	43.4	18.4
46.1 µM	6.74	5.19

AUC of viability dose-response curve
Conditions	NOMO1 [1]	P12-Ichikawa [2]	SEM cells [3]
HPLM + 10% dialyzed FBS	435	429	408
RPMI 5 mM glucose + 10% FBS	453	439	383
RPMI 5 mM glucose + 10% dialyzed FBS	462	432	389

c1ccc2c(CCNc3ccc(Nc4ccncc4)cc3)c[nH]c2c1
AUC of viability dose-response curve
Conditions	NOMO1 [1]	P12-Ichikawa [2]	SEM cells [3]
HPLM + 10% dialyzed FBS	426	444	312
RPMI 5 mM glucose + 10% FBS	430	429	282
RPMI 5 mM glucose + 10% dialyzed FBS	425	418	308

O=C1NC(=O)/C(=C/c2ccc3c(c2)OC(F)(F)O3)S1
AUC of viability dose-response curve
Conditions	NOMO1 [1]	P12-Ichikawa [2]	SEM cells [3]
HPLM + 10% dialyzed FBS	465	462	464
RPMI 5 mM glucose + 10% FBS	446	463	466
RPMI 5 mM glucose + 10% dialyzed FBS	457	440	466

COC1=CC(c2cc3ccccc3[nH]2)=N/C1=C/c1[nH]c(C)cc1C
AUC of viability dose-response curve
Conditions	NOMO1 [1]	P12-Ichikawa [2]	SEM cells [3]
HPLM + 10% dialyzed FBS	463	455	436
RPMI 5 mM glucose + 10% FBS	470	450	420
RPMI 5 mM glucose + 10% dialyzed FBS	448	452	391

O=C1c2ccccc2-c2n[nH]c3cccc1c23
cell viability [%]
Conditions	NOMO1 [5]	P12-Ichikawa [6]	SEM cells [4]
HPLM + 10% dialyzed FBS, 0.000781 µM	109	96.5	82.9
HPLM + 10% dialyzed FBS, 0.00234 µM	131	102	101
HPLM + 10% dialyzed FBS, 0.00702 µM	103	107	121
HPLM + 10% dialyzed FBS, 0.0211 µM	111	111	97.9
HPLM + 10% dialyzed FBS, 0.0632 µM	123	107	99
HPLM + 10% dialyzed FBS, 0.19 µM	120	108	104
HPLM + 10% dialyzed FBS, 0.569 µM	92.5	81	5.3
HPLM + 10% dialyzed FBS, 1.71 µM	122	106	102
HPLM + 10% dialyzed FBS, 5.12 µM	102	80	112
HPLM + 10% dialyzed FBS, 15.4 µM	53.6	46.6	76.8
HPLM + 10% dialyzed FBS, 46.1 µM	28.3	12.8	37.4
RPMI 5 mM glucose + 10% FBS, 0.000781 µM	90.6	106	82
RPMI 5 mM glucose + 10% FBS, 0.00234 µM	105	109	107
RPMI 5 mM glucose + 10% FBS, 0.00702 µM	110	107	97.3
RPMI 5 mM glucose + 10% FBS, 0.0211 µM	113	113	103
RPMI 5 mM glucose + 10% FBS, 0.0632 µM	102	109	106
RPMI 5 mM glucose + 10% FBS, 0.19 µM	127	111	107
RPMI 5 mM glucose + 10% FBS, 0.569 µM	113	84.6	6.25
RPMI 5 mM glucose + 10% FBS, 1.71 µM	107	106	98.2
RPMI 5 mM glucose + 10% FBS, 5.12 µM	117	68.4	90.5
RPMI 5 mM glucose + 10% FBS, 15.4 µM	53.7	48.9	63.6
RPMI 5 mM glucose + 10% FBS, 46.1 µM	18.2	10.7	21.2
RPMI 5 mM glucose + 10% dialyzed FBS, 0.000781 µM	101	98.1	86.6
RPMI 5 mM glucose + 10% dialyzed FBS, 0.00234 µM	107	97.2	93.9
RPMI 5 mM glucose + 10% dialyzed FBS, 0.00702 µM	98.3	98.5	99.1
RPMI 5 mM glucose + 10% dialyzed FBS, 0.0211 µM	114	108	105
RPMI 5 mM glucose + 10% dialyzed FBS, 0.0632 µM	116	112	91
RPMI 5 mM glucose + 10% dialyzed FBS, 0.19 µM	115	100	116
RPMI 5 mM glucose + 10% dialyzed FBS, 0.569 µM	120	87.6	5.93
RPMI 5 mM glucose + 10% dialyzed FBS, 1.71 µM	108	101	92.9
RPMI 5 mM glucose + 10% dialyzed FBS, 5.12 µM	94.2	78	103
RPMI 5 mM glucose + 10% dialyzed FBS, 15.4 µM	94.9	62.3	67.4
RPMI 5 mM glucose + 10% dialyzed FBS, 46.1 µM	23.9	16.4	26.7

AUC of viability dose-response curve
Conditions	HPLM + 10% dialyzed FBS	RPMI 5 mM glucose + 10% FBS	RPMI 5 mM glucose + 10% dialyzed FBS
NOMO1 [1]	429	433	449
P12-Ichikawa [2]	416	401	422

Cc1cccc(-c2n[nH]cc2-c2ccc3ncccc3n2)n1
AUC of viability dose-response curve
Conditions	HPLM + 10% dialyzed FBS	RPMI 5 mM glucose + 10% FBS	RPMI 5 mM glucose + 10% dialyzed FBS
NOMO1 [1]	447	458	430
SEM cells [3]	459	449	451

CN1CCN2c3ccccc3Cc3ccccc3C2C1 (stereo unspecified)
AUC of viability dose-response curve
Conditions	NOMO1 [1]	P12-Ichikawa [2]	SEM cells [3]
HPLM + 10% dialyzed FBS	433	453	467
RPMI 5 mM glucose + 10% FBS	474	441	463
RPMI 5 mM glucose + 10% dialyzed FBS	472	466	453

C[C@@H]1C[C@@H]([C@H](O)CC2CC(=O)NC(=O)C2)C(=O)[C@@H](C)C1
AUC of viability dose-response curve
Conditions	NOMO1 [1]	P12-Ichikawa [2]	SEM cells [3]
HPLM + 10% dialyzed FBS	315	312	279
RPMI 5 mM glucose + 10% FBS	337	288	268
RPMI 5 mM glucose + 10% dialyzed FBS	323	299	295
